Earlier results on three compounds are cited in publication PMC7426938, “Induction of mitochondria-mediated apoptosis and suppression of tumor growth in zebrafish xenograft model by cyclic dipeptides identified from Exiguobacterium acetylicum” (Scientific Reports, 2020).

Values after ≈ are worked out from the molar mass of the structure shown.

Series [1] relates to HT-29 cells. Further details: method as in PMID 15274345. The following applies: read-out: dose giving 50% growth inhibition; cited from earlier work.
For another series, the system named is HeLa cells. On the set-up: method as in PMID 15274345. The following applies: read-out: dose giving 50% growth inhibition; cited from earlier work.
Another series has as its system MCF-7 cells. On the set-up: method as in PMID 15274345. The following applies: read-out: dose giving 50% growth inhibition; cited from earlier work.
For the next series, the system named is HL-60 cells. On the set-up: method as in PMID 29211005, PMID 10052845. The conditions noted are these: cited from earlier work.
The subject of series [2] is HT-29 cells. On the set-up: method as in PMID 29211005, PMID 10052845. The following applies: cited from earlier work.

In the case of `O=C1NC(Cc2ccccc2)C(=O)N2CCCC12` (centres unmarked) [cyclo (Phe-Pro)], the IC50 with HT-29 cells [1], in the series on HeLa cells and in the series on MCF-7 cells was less than 7 mM in each case.
In the case of `O=C1NC(Cc2ccc(O)cc2)C(=O)N2CCCC12` (centres unmarked) [cyclo (Tyr-Pro)], the IC50 in the series with HT-29 cells [1], in the series with HeLa cells and with MCF-7 cells was less than 7 mM each time.
On to `CC(C)C[C@@H]1NC(=O)[C@H](NC(=O)c2cccc(O)c2O)CCCNC1=O` [petrocidin-A], for which the “IC50, anti-proliferative effect” value in the series on HL-60 cells is 3.9 µg/mL (≈ 10.7 µM); with HT-29 cells [2], 5.3 µg/mL (≈ 14.6 µM).
